Reference: patent publication US6011015A, “Angiotensin II for improving fertilization” (Queen Mary & Westfield College, priority 1994, dated 2000)
Structures can show the parent of a compound that is named as a salt.

Key:
Assay type in all cases: cell-based
Human sperm [1] = assay: Percentage motility of human sperm, counted from video recordings in a Makler chamber
Experimental: Human sperm sample were obtained from 12 volunteers and patients attending the Newham Hospital assisted fertility clinic. Samples were suspended in modified minimum essential medium with Earle's salts (MEM) and glutamine and viewed in a Makler chamber using an Olympus inverted microscope fitted with an Olympus ARTF-2 video camera. Fields were recorded on video tape and percentage motility evaluated at 1 min and 5 min. After mixing with MEM alone (unstimulated controls) or with MEM containing 1 nmole/litre angiotensin II amide.
In practice, rigid use of this definition was rarely necessary as sperm were either completely immotile or progressed freely.
A series of six sperm samples, obtained from the same source as Example 1, were mixed either with unmodified MEM, or MEM containing DuP-753 (1 nmole/l).
Percentage motility was estimated in the same way as in Example 1.
(§1) Effect of Angiotensin II on Sperm Velocity Sperm samples were obtained from the same source as Example 1. One series of samples was kept as controls. To a second series Angiotensin II amide (10 nmole/l) was added. A third series was treated with monoclonal antibody to the AT1, receptor before angiotensin was added.
Sperm samples were obtained from the same source as Example 1. One series of samples was kept as controls. A second series was exposed to angiotensin II (1 μmole/l) for five minutes. A third series was exposed to angiotensin II (1 μmole/l) for 5 minutes and then DuP-753 (1 μmole/l) was added.
The percentage of motile sperm was measured using the same method as was used in Example 1.

Human sperm [2] = assay: Forward progressive sperm velocity, timed manually across the Makler chamber grid; conditions: Angiotensin II amide (10 nmole/l); FIG. 3(a)
Experimental: as §1
Velocity was measured by timing forwardly progressive sperm traversing the grid on the Makler Chamber and timing them manually.

Human sperm [3] = assay: Sperm motility by computer system (VCL and ALH); conditions: angiotensin II amide (1 nmole/l) versus unstimulated controls, over 30 minutes
Experimental: Sperm samples were obtained from the same source as Example 1. One series of samples was kept as controls. TO a second series angiotensin II amide (1 nmole/l) was added.
Sperm motility was assayed by using a computer system which measures different aspects of sperm motility, namely curvilinear velocity (VCL) and amplitude of lateral head displacement (ALH).

## angiotensin II (DRVYIHPF; Angiotensin-2; UniProt P01019 25-32, looked up) [octapeptide hormone of the renin-angiotensin system]
Human sperm [1]; MEM containing 1 nmole/litre angiotensin II amide, 12 human sperm samples, FIG. 1(b)
  percentage motility after 5 minutes compared with percentage motility after 1 minute: significantly different
Human sperm [1]; angiotensin II (1 μmole/l) for five minutes, in most samples, FIG. 4
  percentage of sperm which were motile after 5 minutes compared with the controls: enhanced
Human sperm [2]
  forward progressive velocity compared with the untreated controls: significantly stimulated

## angiotensin II amide
Human sperm [3]; FIGS. 6 and 8
  curvilinear velocity (VCL): stimulates
Human sperm [3]; FIGS. 7 and 8
  amplitude of lateral head displacement (ALH): stimulates

## CCCCc1nc(Cl)c(CO)n1Cc1ccc(-c2ccccc2-c2nn[nH]n2)cc1 [DuP-753, 2-n-butyl-4-chloro-5-hydroxymethyl-1-[(2'-(1H-tetrazol-5-yl)biphenyl-4-yl)methyl] imidazole, potassium salt, reference compound]
Human sperm [1]; MEM containing DuP-753 (1 nmole/l), six sperm samples, FIG. 2
  percentage motility relative to the untreated controls: significantly decreased
Human sperm [1]; angiotensin II (1 μmole/l) for 5 minutes, then DuP-753 (1 μmole/l) added, FIG. 4
  effect on the angiotensin II enhancement of the percentage of motile sperm: generally reduced
